Results from BindingDB's records for patent US20250313563 (The Broad Institute, 2025).
Values joined by “and” are separate entries in the source; they are usually repeats but may differ in a detail not shown here. Identical values can stand only once.

Assays:
[1] = target: Glycogen synthase kinase-3 alpha (Homo sapiens, UniProt P49840); test: TR-FRET Assay
Experimental: (§1) The assay was performed in a white, 384 well, low volume, flat bottom plate (Grenier). […] The kinase activity was quenched with 2 μL of 250 mM EDTA. A 10 μL volume of 40 nM Strepavidin-d2, 2 nM Tb2+-pSer641 antibody in TR-FRET Detection Buffer (Invitrogen) was then added.

[2] = target: Glycogen synthase kinase-3 beta (Homo sapiens, UniProt P49841); test: TR-FRET Assay
Glycogen synthase kinase-3 beta, sequence (P49841 whole entry): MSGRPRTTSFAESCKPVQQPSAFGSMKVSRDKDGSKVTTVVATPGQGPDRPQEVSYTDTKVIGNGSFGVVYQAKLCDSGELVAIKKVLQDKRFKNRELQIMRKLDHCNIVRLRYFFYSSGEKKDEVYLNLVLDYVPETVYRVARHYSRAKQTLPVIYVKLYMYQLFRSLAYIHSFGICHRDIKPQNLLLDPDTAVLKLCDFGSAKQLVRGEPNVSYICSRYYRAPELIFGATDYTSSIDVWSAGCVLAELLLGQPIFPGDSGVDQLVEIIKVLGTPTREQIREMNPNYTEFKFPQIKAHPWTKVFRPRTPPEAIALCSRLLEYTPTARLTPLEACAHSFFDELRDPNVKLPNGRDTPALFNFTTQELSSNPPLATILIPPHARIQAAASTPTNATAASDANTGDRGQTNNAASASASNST
Experimental: as §1

Glycogen synthase kinase-3 alpha, sequence (P49840 whole entry): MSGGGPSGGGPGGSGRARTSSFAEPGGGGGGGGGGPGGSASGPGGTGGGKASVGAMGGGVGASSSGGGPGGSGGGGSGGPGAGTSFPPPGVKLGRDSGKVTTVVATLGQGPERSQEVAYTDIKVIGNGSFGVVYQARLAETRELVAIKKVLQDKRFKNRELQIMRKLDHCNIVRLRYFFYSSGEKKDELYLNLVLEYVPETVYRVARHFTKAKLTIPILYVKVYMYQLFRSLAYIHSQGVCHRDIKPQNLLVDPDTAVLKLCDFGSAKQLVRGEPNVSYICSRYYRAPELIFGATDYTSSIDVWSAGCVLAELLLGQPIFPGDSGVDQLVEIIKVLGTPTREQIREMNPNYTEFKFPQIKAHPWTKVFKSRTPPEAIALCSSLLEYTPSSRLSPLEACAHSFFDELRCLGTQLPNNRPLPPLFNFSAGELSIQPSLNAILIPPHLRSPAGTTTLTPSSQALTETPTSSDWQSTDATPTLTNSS

SMILES | IC50 [1] | IC50 [2]
CC(C)(C)CC1N=NC2=C1C1(CN(S(=O)(=O)CC3CC3)C1)C1=C(CC3(CCC3)CC1=O)N2 (configuration not stated) [US20250313563, Compound 107829] | 1000 to 5000 nM | 100 to 1000 nM
CC[C@@]1(c2cccc(-c3cnn(CCc4ccccc4)c3)c2)C2=CN=NC2NC2=C1C(=O)NC(C)(C)C2 (some centres not stated) [US20250313563, Compound 952017] | < 100 nM | 100 to 1000 nM
CC1(C)CC(=O)C2=C(C1)NC1=C(CN=N1)[C@]2(C)c1cccc(-c2ccccc2)c1 [US20250313563, Compound 801367] | < 100 nM | 100 to 1000 nM
CC[C@@]1(c2cccc(-c3cnn4ccncc34)c2)C2=CN=NC2NC2=C1C(=O)NC(C)(C)C2 (some centres not stated) [US20250313563, Compound 952565] | < 100 nM and 1000 to 5000 nM | 100 to 1000 nM and > 5000 nM
CC1(C)CC(=O)C2=C(C1)NC1=C(CN=N1)C21CCN(S(=O)(=O)c2ccn(-c3ccccc3)n2)CC1 [US20250313563, Compound 947461] | < 100 nM | < 100 nM
CC[C@]1(c2cccc(-c3c(F)cncc3Cl)c2)C2=CN=NC2NC2=C1C(=O)NC(C)(C)C2 (some centres not stated) [US20250313563, Compound 948363] | 1000 to 5000 nM | > 5000 nM
CC[C@@]1(c2cccc(C(F)(F)F)c2)C2=CN=NC2NC2=C1C(=O)NC[C@H]2C (some centres not stated) [US20250313563, Compound 945385] | > 5000 nM | > 5000 nM
CC[C@]1(c2cccc(Br)c2)C2=CN=NC2NC2=C1C(=O)[C@@H](F)C(C)(C)C2 (some centres not stated) [US20250313563, Compound 835315] | 100 to 1000 nM | 1000 to 5000 nM
CCC1(c2cccc(N3CCNCC3)c2)C2=CN=NC2NC2=C1C(=O)CC(C)(C)C2 (configuration not stated) [US20250313563, Compound 806604] | > 1670 nM | > 5000 nM
CC[C@@]1(c2cccc(C(F)(F)F)c2)C2=C(N=NC2)NC2=C1C(=O)NC2 [US20250313563, Compound 917158] | 100 to 1000 nM | 1000 to 5000 nM
CC1(C)CC(=O)C2=C(C1)NC1=C(CN=N1)[C@]21CCCN(S(=O)(=O)C2CC2)CC1 [US20250313563, Compound 932659] | < 100 nM | 100 to 1000 nM
CCC1(c2cccc(-c3ccccc3)c2)C2=CN=NC2NC2=C1C(=O)CC(C)(C)C2 (configuration not stated) [US20250313563, Compound 789514] | 100 to 1000 nM | 100 to 1000 nM
CC[C@@]1(c2cccc(N3CCC3(C)C)c2)C2=CN=NC2NC2=C1C(=O)CC(C)(C)C2 (some centres not stated) [US20250313563, Compound 913141] | 100 to 1000 nM | 1000 to 5000 nM
CC[C@]1(c2ccccc2)C2=CN=NC2NC2=C1C(=O)CC1(CC1)C2 (some centres not stated) [US20250313563, Compound 790615] | < 100 nM | 100 to 1000 nM
CC[C@@]1(c2cccc(-c3ccnn3C)c2)C2=CN=NC2NC2=C1C(=O)NC1(CCOCC1)C2 (some centres not stated) [US20250313563, Compound 948526] | 1000 to 5000 nM | > 5000 nM

Continued, values first:

IC50 [1] | IC50 [2] | SMILES
< 100 nM | 100 to 1000 nM | CCC1(c2cccc(-c3ccnc4c3CCC4)c2)C2=C(CC(C)(C)NC2=O)NC2N=NC(C)=C21 (configuration not stated) [US20250313563, Compound 947675]
< 100 nM | < 100 nM and 100 to 1000 nM | CC[C@]1(c2cccc(Br)c2)C2=C(CC(C)(C)CC2=O)NC2N=NC(C(F)(F)F)=C21 (some centres not stated) [US20250313563, Compound 810366]
< 100 nM and 100 to 1000 nM | < 100 nM and 1000 to 5000 nM | CC[C@@]1(c2cccc(-c3ccncc3C)c2)C2=C(CC(C)(C)NC2=O)NC2N=NC(C)=C21 (some centres not stated) [US20250313563, Compound 947414]
< 100 nM | < 100 nM and 100 to 1000 nM | CCC1(c2cccc(N3CCCC3)c2)C2=C(CC(C)(C)NC2=O)NC2N=NC(C(F)(F)F)=C21 (configuration not stated) [US20250313563, Compound 947860]
> 5000 nM | > 5000 nM | CC[C@]1(c2cccc(-c3ccnc(C)c3Cl)c2)C2=CN=NC2NC2=C1C(=O)NC(C)(C)C2 (some centres not stated) [US20250313563, Compound 948369]
< 100 nM | < 100 nM and 100 to 1000 nM | CCC1(c2cccc(-c3cnn(C)c3C)c2)C2=C(CC(C)(C)NC2=O)NC2N=NC(C(F)(F)F)=C21 (configuration not stated) [US20250313563, Compound 947403]
